# According to patent US8329904B2, “Azacyclic derivatives” (Hoffmann-La Roche Inc., priority 2009, dated 2012):
# Target: T1, human HSL (Homo sapiens, UniProt Q05469)
# T1 construct: overlapping PCR to generate a full length human HSL ORF with a 3′-His6 tag; His6 (C); made in house; host or cells: High 5 insect cells (baculovirus, pFast-BAC)
# T1 sequence (Q05469 1-1076): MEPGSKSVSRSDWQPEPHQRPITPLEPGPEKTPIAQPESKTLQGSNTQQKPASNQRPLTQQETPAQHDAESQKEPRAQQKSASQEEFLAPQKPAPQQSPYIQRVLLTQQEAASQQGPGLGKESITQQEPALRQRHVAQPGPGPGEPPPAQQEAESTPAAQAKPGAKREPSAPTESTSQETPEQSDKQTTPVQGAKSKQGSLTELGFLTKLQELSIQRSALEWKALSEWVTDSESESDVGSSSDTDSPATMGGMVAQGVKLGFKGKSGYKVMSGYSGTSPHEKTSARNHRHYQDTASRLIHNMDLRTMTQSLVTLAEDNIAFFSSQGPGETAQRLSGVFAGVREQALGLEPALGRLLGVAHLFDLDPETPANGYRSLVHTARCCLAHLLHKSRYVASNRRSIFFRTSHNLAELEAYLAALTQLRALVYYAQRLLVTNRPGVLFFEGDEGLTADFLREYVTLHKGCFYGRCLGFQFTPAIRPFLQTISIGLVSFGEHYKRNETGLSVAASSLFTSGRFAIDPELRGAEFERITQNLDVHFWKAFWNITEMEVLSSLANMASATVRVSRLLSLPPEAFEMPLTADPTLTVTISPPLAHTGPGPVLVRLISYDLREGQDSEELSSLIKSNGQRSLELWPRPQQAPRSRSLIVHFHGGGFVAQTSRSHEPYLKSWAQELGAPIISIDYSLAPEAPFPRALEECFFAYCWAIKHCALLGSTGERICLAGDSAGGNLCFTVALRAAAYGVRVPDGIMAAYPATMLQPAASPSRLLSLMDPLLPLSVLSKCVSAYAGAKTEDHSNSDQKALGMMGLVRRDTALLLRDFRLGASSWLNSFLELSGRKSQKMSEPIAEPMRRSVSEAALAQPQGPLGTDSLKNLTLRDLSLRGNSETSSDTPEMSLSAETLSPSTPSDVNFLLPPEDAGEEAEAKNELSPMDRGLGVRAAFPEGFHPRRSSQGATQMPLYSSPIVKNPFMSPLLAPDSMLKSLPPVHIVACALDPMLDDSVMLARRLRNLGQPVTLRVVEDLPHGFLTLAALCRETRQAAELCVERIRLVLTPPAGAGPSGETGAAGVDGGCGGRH
# Test: Human Hormone-Sensitive Lipase (HSL) Enzyme Inhibition Assay
# Type: biochemical
# Conditions: colorimetric assay, 2,3-dimercapto-1-propanol tributyrate (DMPT) substrate, 37° C. for 20 minutes, absorbance at 405 nm; read-out: HSL hum IC50
# Protocol: Production of Human Full Length Hormone Sensitive Lipase-His^6
# 1) Cloning: cDNA was prepared from commercial human brain polyA-+ RNA and used as a template in overlapping PCR to generate a full length human HSL ORF with a 3′-His6 tag. This full length insert was cloned into the pFast-BAC vector and the DNA-sequence of several single clones was verified. DNA from a correct full length clone with the 3′His6 tag was used to transform the E. coli strain DH10BAC. Resulting bacmid DNA was used to generate a titered baculovirus stock for protein generation.
# Cells were thawed. […] was done at 3×30 sec., Lubrol PX was added to 0.2% final concentration followed by stirring for 15 min. at 4° C. and centrifugation at 25 k×g, 60 min., 4° C. […] Supernatant was removed, the resin washed in the centrifuge vessel using 5 volumes of Base Buffer containing 0.2% Lubrol PX. Centrifugation was done again, then the supernatant discarded. The resin wass poured onto a 0.8 μm membrane in a disposable filter unit (Nalge 450-0080), and washed with 5 volumes of Base Buffer containing 0.2% Lubrol PX. It was then washed with 30 volumes of Base Buffer containing 60 mM imidazole pH 7.5 at 4° C. The protein was eluated with 5 volumes of 25 mM Tris-Cl, 300 mM NaCl, 200 mM imidazole, 10 mM 2-mercaptoethanol, pH 7.5 at 4° C. by tumbling resin with buffer end-over-end, 30 min., 4° C. The resin was captured on a 0.2 μm membrane disposable filter unit (Millipore SCGP U02 RE) and the eluate collected in the reservoir. The eluate was concentrated using a 30 k MWCO centrifugal filter device (Sartorius Vivascience Vivacell 100, VC1022), to 20 ml. It was then dialyzed overnight at 4° C., two times against 2 L of 10% glycerol, 25 mM Tris-Cl, 300 mM NaCl, 0.2 mM EDTA, 0.2 mM DTT, pH 7.5 at 4° C. The protein was filtered using a 0.22 μm disposable filter unit (Millipore SCGP00525). The protein concentration was calculated from absorbance at 280 nm, using 280=0.67 cm-1 mg-1. […] The protein was stored at −80° C.
# Human Hormone-Sensitive Lipase (HSL) Enzyme Inhibition Assay:
# HSL enzyme activity was measured by a colorimetric assay using 2,3-dimercapto-1-propanol tributyrate (Aldrich, St. Louis, Mo.) as a substrate. Typically, 1.5 mM 2,3-dimercapto-1-propanol tributyrate (DMPT) in 100 mM MOPS, pH 7.2, 0.2 mg/ml fatty acid-free BSA was prepared by sonication at 4° C. to homogenous suspension. Test compounds (2 mM stock in DMSO) were diluted 3 fold in series in DMSO. Compound solutions were diluted 24 fold in 1.5 mM DMPT containing solution and 18 ul per well was added to 384-well microplates (Corning Costar). Twelve microliters per well of human HSL (15 ug/ml) was added and the reaction mixture was incubated at 37° C. for 20 minutes. Six microliters of 12 mM dithio-bis-(2-nitrobenzoic acid) (DTNB) in DMSO plus 1.2% SDS and 0.6% Triton X-100 were added and the mixture was incubated at room temperature for 15 minutes. Product production was monitored by reading absorbance at 405 nm on an Envision Reader (PerkinElmer Life and Analytical Sciences, Shelton, Conn.).
row,IC50 [nM],SMILES
1,30,"CS(=O)(=O)Oc1ccc(N2CCC3(CCN(S(=O)(=O)c4ccccc4Cl)CC3)C2=O)cc1 [Example 48, Methanesulfonic acid 4-[8-(2-chloro-benzenesulfonyl)-1-oxo-2,8-diaza-spiro[4.5]dec-2-yl]-phenyl ester]"
2,360,"CC(C)Oc1ccc(N2CCC3(CCN(S(=O)(=O)C4CC4)CC3)C2=O)cc1 [Example 95, 8-Cyclopropanesulfonyl-2-(4-isopropoxy-phenyl)-2,8-diaza-spiro[4.5]decan-1-one]"
3,20,"O=C1N(c2ccc(OC3CCCC3)cc2)CCC12CCN(S(=O)(=O)c1ccccc1Cl)CC2 [Example 128, 8-(2-Chloro-benzenesulfonyl)-2-(4-cyclopentyloxy-phenyl)-2,8-diaza-spiro[4.5]decan-1-one]"
4,30,"CS(=O)(=O)Oc1ccc(N2CCC3(CCN(S(=O)(=O)c4cccs4)CC3)C2=O)cc1 [Example 59, Methanesulfonic acid 4-[1-oxo-8-(thiophene-2-sulfonyl)-2,8-diaza-spiro[4.5]dec-2-yl]-phenyl ester]"
5,50,"CC(=O)c1ccc(N2CCC3(CCN(S(=O)(=O)c4ccccc4Cl)CC3)C2=O)cc1 [Example 151, 2-(4-Acetyl-phenyl)-8-(2-chloro-benzenesulfonyl)-2,8-diaza-spiro[4.5]decan-1-one]"
6,900,"CC(C)NC(=O)c1ccc(N2CCC3(CCN(S(=O)(=O)c4ccccc4Cl)CC3)C2=O)cc1 [Example 160, 4-[8-(2-Chloro-benzenesulfonyl)-1-oxo-2,8-diaza-spiro[4.5]dec-2-yl]-N-isopropyl-benzamide]"
7,110,"CCc1ccc(N2CCC3(CCN(S(=O)(=O)c4ccccc4Cl)CC3)C2=O)cn1 [Example 250, 8-(2-Chloro-benzenesulfonyl)-2-(6-ethyl-pyridin-3-yl)-2,8-diaza-spiro[4.5]decan-1-one]"
8,270,"CCc1ccc(N2CCC3(CCN(S(=O)(=O)N4CCOCC4)CC3)C2=O)cc1 [Example 21, 2-(4-Ethyl-phenyl)-8-(morpholine-4-sulfonyl)-2,8-diaza-spiro[4.5]decan-1-one]"
9,150,"CCC(C)c1ccc(N2CCC3(CCN(C(=O)CC(C)(C)C)CC3)C2=O)cc1 (stereo not shown) [Example 46, 2-(4-sec-Butyl-phenyl)-8-(3,3-dimethyl-butyryl)-2,8-diaza-spiro[4.5]decan-1-one]"
10,130,"COC1(CS(=O)(=O)N2CCC3(CCN(c4ccc(OC(F)(F)F)cc4)C3=O)CC2)CCCC1 [Example 211, 8-(1-Methoxy-cyclopentylmethanesulfonyl)-2-(4-trifluoromethoxy-phenyl)-2,8-diaza-spiro[4.5]decan-1-one]"
11,80,"CC(C)CS(=O)(=O)N1CCC2(CCN(c3ccc(OC(F)(F)F)cc3)C2=O)CC1 [Example 18, 8-(2-Methyl-propane-1-sulfonyl)-2-(4-trifluoromethoxy-phenyl)-2,8-diaza-spiro[4.5]decan-1-one]"
12,120,"O=C1N(c2ccc(C(F)(F)F)cc2)CCCC12CCN(S(=O)(=O)c1ccccc1Cl)CC2 [Example 158, 9-(2-Chloro-benzenesulfonyl)-2-(4-trifluoromethyl-phenyl)-2,9-diaza-spiro[5.5]undecan-1-one]"
13,70,"CCCCN(C)C(=O)N1CCC2(CC1)CCN(c1ccc(OC(F)(F)F)cc1)C2=O [Example 269, 1-Oxo-2-(4-trifluoromethoxy-phenyl)-2,8-diaza-spiro[4.5]decane-8-carboxylic acid butyl-methyl-amide]"
14,80,"CC(C)CS(=O)(=O)N1CCC2(CCN(c3ccc(OC(C)C(F)(F)F)cc3)C2=O)CC1 (stereo not shown) [Example 86, 8-(2-Methyl-propane-1-sulfonyl)-2-[4-(2,2,2-trifluoro-1-methyl-ethoxy)-phenyl]-2,8-diaza-spiro[4.5]decan-1-one]"
15,330,"CCN(CC)C(=O)N1CCC2(CC1)CCN(c1ccc(OC(F)(F)F)cc1)C2=O [Example 266, 1-Oxo-2-(4-trifluoromethoxy-phenyl)-2,8-diaza-spiro[4.5]decane-8-carboxylic acid diethylamide]"
16,140,"CCCN(C)C(=O)N1CCC2(CC1)CCN(c1ccc(OC(F)(F)F)cc1)C2=O [Example 253, 1-Oxo-2-(4-trifluoromethoxy-phenyl)-2,8-diaza-spiro[4.5]decane-8-carboxylic acid methyl-propyl-amide]"
17,30,"O=C1N(c2ccc(C3(F)COC3)cc2)CCC12CCN(S(=O)(=O)c1ccccc1Cl)CC2 [Example 230, 8-(2-Chloro-benzenesulfonyl)-2-[4-(3-fluoro-oxetan-3-yl)-phenyl]-2,8-diaza-spiro[4.5]decan-1-one]"
18,60,"Cc1ccc(S(=O)(=O)N2CCC3(CCN(c4ccc(OS(C)(=O)=O)cc4)C3=O)CC2)s1 [Example 50, Methanesulfonic acid 4-[8-(5-methyl-thiophene-2-sulfonyl)-1-oxo-2,8-diaza-spiro[4.5]dec-2-yl]-phenyl ester]"
19,80,"O=C1N(c2ccc(C3CC3)cc2)CCC12CCN(S(=O)(=O)c1ccccc1C(F)(F)F)CC2 [Example 71, 2-(4-Cyclopropyl-phenyl)-8-(2-trifluoromethyl-benzenesulfonyl)-2,8-diaza-spiro[4.5]decan-1-one]"
20,400,"O=C(Nc1ccc(F)cc1)N1CCC2(CC1)CCN(c1ccc(OC(F)(F)F)cc1)C2=O [Example 259, 1-Oxo-2-(4-trifluoromethoxy-phenyl)-2,8-diaza-spiro[4.5]decane-8-carboxylic acid (4-fluoro-phenyl)-amide]"
21,50,"O=C1N(c2ccc(C3CC3)cc2)CCC12CCN(S(=O)(=O)c1cccs1)CC2 [Example 36, 2-(4-Cyclopropyl-phenyl)-8-(thiophene-2-sulfonyl)-2,8-diaza-spiro[4.5]decan-1-one]"
22,750,"CC(C)(C)CC(=O)N1CCC2(CC1)CCN(c1ccc(C(O)C(C)(F)F)cc1)C2=O (stereo not shown) [Example 175, 2-(4-(2,2-difluoro-1-hydroxypropyl)phenyl)-8-(3,3-dimethylbutanoyl)-2,8-diazaspiro[4.5]decan-1-one]"
